From ChEMBL document CHEMBL1201862, “PubChem BioAssay data set” (2004)
Activity calls are given as the source filed them.

Experiments:
[1] = molecular target: UDP-galactopyranose mutase (Mycobacterium tuberculosis, UniProt P9WIQ1); test: Inhibitors of Mycobacterium tuberculosis UDP-galactopyranose mutase (UGM) enzyme Measured in Biochemical System Using Plate Reader - 2105-02_Inhibitor_Dose_CherryPick_Activity. [Related pubchem assays (depositor defined):AID504439]
[2] = molecular target: T1, RNA-binding protein pos-1 (Caenorhabditis elegans, UniProt G5EF15); test: disruptors of C. elegans POS-1 RNA interaction – biochemical, fluorescence polarization, dose response (AID 1964);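 also: purified POS-1 fused to maltose binding protein made in E. coli; potency of compounds blocking POS-1 binding to fluorescent RNA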
T1 sequence (G5EF15 whole entry): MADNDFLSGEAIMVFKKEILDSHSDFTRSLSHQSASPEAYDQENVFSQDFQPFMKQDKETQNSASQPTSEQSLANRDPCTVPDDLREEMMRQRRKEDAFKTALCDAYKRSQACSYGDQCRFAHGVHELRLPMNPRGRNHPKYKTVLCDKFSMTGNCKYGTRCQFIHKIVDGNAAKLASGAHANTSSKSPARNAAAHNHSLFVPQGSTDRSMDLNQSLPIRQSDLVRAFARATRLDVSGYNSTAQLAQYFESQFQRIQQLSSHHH

Sequence of UDP-galactopyranose mutase (P9WIQ1 whole entry, the tested form may be a part): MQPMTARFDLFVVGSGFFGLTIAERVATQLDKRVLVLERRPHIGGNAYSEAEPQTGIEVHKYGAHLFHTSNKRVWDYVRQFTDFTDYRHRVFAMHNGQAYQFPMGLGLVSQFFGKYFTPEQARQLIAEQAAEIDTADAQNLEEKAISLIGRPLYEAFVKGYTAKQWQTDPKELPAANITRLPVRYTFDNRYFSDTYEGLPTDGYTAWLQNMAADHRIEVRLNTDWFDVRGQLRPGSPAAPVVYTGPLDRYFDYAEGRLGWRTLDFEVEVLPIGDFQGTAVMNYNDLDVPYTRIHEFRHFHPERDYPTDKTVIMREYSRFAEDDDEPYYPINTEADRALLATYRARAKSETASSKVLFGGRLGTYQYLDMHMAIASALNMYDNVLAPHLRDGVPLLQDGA

`COCCNC(=O)Cn1cc(/C=C2\C(=O)NC(=O)N(c3ccccc3F)C2=O)c2ccccc21` was tested, and the AC50 [1] was 32.1 µM (active) and the EC50 [2] was 6.32 µM (active).
